# Experiments:
# Test in all cases: MIC, microdilution, clinical strains
# Type in all cases: cell-based
# [1] = system: clinical strains of E. cloacae; details: 0.02% BSA, 0.2% acetic acid
# Procedure, shortened: (§1)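 Broth microdilution with inocula adjusted to 5.0×10^5 cfu/ml; peptides tested at 0.125 to 128 μg/ml and incubated at 37° C for 20 to 24 hours. Bacteria were grown in Mueller Hinton broth, yeasts in potato dextrose broth. MIC was the lowest concentration showing no visible growth.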
# [2] = system: clinical strains of E. coli; details: microdilution, Muller Hinton broth-cation adjusted, 0.02% BSA, 0.2% acetic acid
# Procedure, shortened: as §1
# [3] = system: clinical strains of K. pneumoniae; details: 0.02% BSA, 0.2% acetic acid
# Procedure, shortened: as §1
# [4] = system: clinical strains of P. aeruginosa; details: 0.02% BSA, 0.2% acetic acid
# Procedure, shortened: as §1
# [5] = system: clinical strains of Proteus mirabilis; details: 0.02% BSA, 0.2% acetic acid
# Procedure, shortened: as §1
# [6] = system: clinical strains of S. aureus; details: 0.02% BSA, 0.2% acetic acid
# Procedure, shortened: as §1
# [7] = system: clinical strains of S. pneumoniae; details: 0.02% BSA, 0.2% acetic acid
# Procedure, shortened: as §1
# [8] = system: clinical strains of Serratia marcescens; details: 0.02% BSA, 0.2% acetic acid
# Procedure, shortened: as §1
# [9] = system: clinical strains of A. johnsonii; design: unit: μg/ml; details: Acinetobacter johnsonii strain 1, Muller Hinton broth-cation adjusted, 0.02% BSA, 0.2% acetic acid
# Method: (§2) Minimum inhibition concetrations (MICs) were determined against Escherichia coli (ATCC 25922), Staphylococcus aureus (ATCC 25923), Klebsiella pneumoniae (ATCC 10031) and Pseudomonas aeruginosa (ATCC 27853). Also clinical strains of E. coli, K. pneumoniae, E. cloacae, P. aeruginosa, Serratia marcescens, Proteus mirabilis, S. pneumoniae, Acinetobacter baumannii, A. johnsonii and S. aureus were used for MICs assays. Additionally, clinical strains of yeast including Candida albicans, C. glabrata, C. parapsilosis and C. quillermondiae were used. The susceptibility of these microorganisms to Chain peptides were determined using micro broth dilution assay. Colonies of the respective microorganism from Muller Hinton (MH) agar plates incubated overnight were suspended in MH broth media and final concentration of microorganism was adjusted to 5.0×10^5 cfu/ml. An aliquot of 10 μl of each Chain peptide, or gentamicin, tetracycline as reference antibiotics were added in differing concentrations along with 90 μl of bacterial suspension to 96 well polypropylene plates and incubated at 37° C. for 20 to 24 hours. Concentrations of Chain peptides and reference antibiotics ranged from 0.125 to 128 μg/ml and the MICs were recorded as the lowest concentration with no visual growth of bacteria. Similarly, antifungal MICs were tested in Potato dextrose broth.
# (§3) Clinical strains of yeasts including Candida albicans, C. glabrata, C. parapsilosis and C. quillermondiae were also tested with the 12 Chain peptides. The minimum inhibitory concentration (MICs) varied between these peptides and are presented in Tables 4a, 4b, 4c and 5a, 5b, 5c. Peptides Chain 105, 201 and 308 are broad spectrum antimicrobials with MICs between 0.5-32 μg/ml against all the bacteria and yeasts tested, except Serratia marcescens and Proteus mirabilis, against which the MICs were between 64-128 μg/ml. Peptide Chain 306 has narrow spectrum activity against E. coli at 1 μg/ml and for the rest of the bacterial strains at >32 μg/ml (FIG. 10c).
# [10] = system: clinical strains of Acinetobacter baumannii; design: unit: μg/ml; details: 0.02% BSA, 0.2% acetic acid
# Method: as §2, §3
substance,measurement,setting,value
Gentamicin [reference compound],Minimum inhibitory concentration,"[1]; Enterobacter cloacae strain 1, Muller Hinton broth-cation adjusted",0.25
same,Minimum inhibitory concentration,"[1]; Enterobacter cloacae strain 2, Muller Hinton broth-cation adjusted",0.25
same,Minimum inhibitory concentration,"[1]; Enterobacter cloacae strain 3, Muller Hinton broth-cation adjusted",0.25
same,Minimum inhibitory concentration,"[1]; Enterobacter cloacae strain 4, Muller Hinton broth-cation adjusted",0.25
same,Minimum inhibitory concentration,"[1]; Enterobacter cloacae strain 5, Muller Hinton broth-cation adjusted",0.25
same,Minimum inhibitory concentration,[2]; Escherichia coli strain 1,0.5
same,Minimum inhibitory concentration,[2]; Escherichia coli strain 2,0.5
same,Minimum inhibitory concentration,[2]; Escherichia coli strain 3,1
same,Minimum inhibitory concentration,[2]; Escherichia coli strain 4,1
same,Minimum inhibitory concentration,[2]; Escherichia coli strain 5,1
same,Minimum inhibitory concentration,"[3]; Klebsiella pneumoniae strain 1, Muller Hinton broth-cation adjusted",2
same,Minimum inhibitory concentration,"[3]; Klebsiella pneumoniae strain 2, Muller Hinton broth-cation adjusted",0.25
same,Minimum inhibitory concentration,"[3]; Klebsiella pneumoniae strain 3, Muller Hinton broth-cation adjusted",2
same,Minimum inhibitory concentration,"[3]; Klebsiella pneumoniae strain 4, Muller Hinton broth-cation adjusted",2
same,Minimum inhibitory concentration,"[3]; Klebsiella pneumoniae strain 5, Muller Hinton broth-cation adjusted",4
same,Minimum inhibitory concentration,"[4]; Pseudomonas aeruginosa strain 1, Muller Hinton broth-cation adjusted",1
same,Minimum inhibitory concentration,"[4]; Pseudomonas aeruginosa strain 2, Muller Hinton broth-cation adjusted",0.5
same,Minimum inhibitory concentration,"[4]; Pseudomonas aeruginosa strain 3, Muller Hinton broth-cation adjusted",0.5
same,Minimum inhibitory concentration,"[4]; Pseudomonas aeruginosa strain 4, Muller Hinton broth-cation adjusted",0.5
same,Minimum inhibitory concentration,"[4]; Pseudomonas aeruginosa strain 5, Muller Hinton broth-cation adjusted",0.25
same,Minimum inhibitory concentration,"[5]; Proteus mirabilis strain 1, Muller Hinton broth-cation adjusted",2
same,Minimum inhibitory concentration,"[5]; Proteus mirabilis strain 2, Muller Hinton broth-cation adjusted",2
same,Minimum inhibitory concentration,"[5]; Proteus mirabilis strain 3, Muller Hinton broth-cation adjusted",>128
same,Minimum inhibitory concentration,"[5]; Proteus mirabilis strain 4, Muller Hinton broth-cation adjusted",8
same,Minimum inhibitory concentration,"[5]; Proteus mirabilis strain 5, Muller Hinton broth-cation adjusted",>128
same,Minimum inhibitory concentration,"[6]; Staphylococcus aureus strain 1, Muller Hinton broth-cation adjusted",0.5
same,Minimum inhibitory concentration,"[6]; Staphylococcus aureus strain 2, Muller Hinton broth-cation adjusted",0.5
same,Minimum inhibitory concentration,"[6]; Staphylococcus aureus strain 3, Muller Hinton broth-cation adjusted",0.5
same,Minimum inhibitory concentration,"[6]; Staphylococcus aureus strain 4, Muller Hinton broth-cation adjusted",0.5
same,Minimum inhibitory concentration,"[6]; Staphylococcus aureus strain 5, Muller Hinton broth-cation adjusted",0.5
same,Minimum inhibitory concentration,"[7]; Streptococcus pneumoniae strain 1, Muller Hinton broth-cation adjusted",2
same,Minimum inhibitory concentration,"[7]; Streptococcus pneumoniae strain 2, Muller Hinton broth-cation adjusted",2
same,Minimum inhibitory concentration,"[7]; Streptococcus pneumoniae strain 3, Muller Hinton broth-cation adjusted",2
same,Minimum inhibitory concentration,"[7]; Streptococcus pneumoniae strain 4, Muller Hinton broth-cation adjusted",2
same,Minimum inhibitory concentration,"[7]; Streptococcus pneumoniae strain 5, Muller Hinton broth-cation adjusted",1
same,Minimum inhibitory concentration,"[8]; Serratia marcescens strain 1, Muller Hinton broth-cation adjusted",1
same,Minimum inhibitory concentration,"[8]; Serratia marcescens strain 2, Muller Hinton broth-cation adjusted",2
same,Minimum inhibitory concentration,"[8]; Serratia marcescens strain 3, Muller Hinton broth-cation adjusted",1
same,Minimum inhibitory concentration,"[8]; Serratia marcescens strain 4, Muller Hinton broth-cation adjusted",1
same,Minimum inhibitory concentration,"[8]; Serratia marcescens strain 5, Muller Hinton broth-cation adjusted",1
same,Minimum inhibitory concentration,[9],0.25
same,Minimum inhibitory concentration,"[10]; Acinetobacter baumannii strain 1, Muller Hinton broth-cation adjusted",0.5
same,Minimum inhibitory concentration,"[10]; Acinetobacter baumannii strain 2, Muller Hinton broth-cation adjusted",0.25
same,Minimum inhibitory concentration,"[10]; Acinetobacter baumannii strain 3, Muller Hinton broth-cation adjusted",0.5
same,Minimum inhibitory concentration,"[10]; Acinetobacter baumannii strain 4, Muller Hinton broth-cation adjusted",0.5
same,Minimum inhibitory concentration,"[10]; Acinetobacter baumannii strain 5, Muller Hinton broth-cation adjusted",0.25
